{"source": "paper PMC12362783", "about": "(Advanced Science, 2025)", "key": {"PARP2": {"biological_target": "PARP2 (Homo sapiens, UniProt Q9UGN5)", "sequence (Q9UGN5 whole entry, species assumed)": "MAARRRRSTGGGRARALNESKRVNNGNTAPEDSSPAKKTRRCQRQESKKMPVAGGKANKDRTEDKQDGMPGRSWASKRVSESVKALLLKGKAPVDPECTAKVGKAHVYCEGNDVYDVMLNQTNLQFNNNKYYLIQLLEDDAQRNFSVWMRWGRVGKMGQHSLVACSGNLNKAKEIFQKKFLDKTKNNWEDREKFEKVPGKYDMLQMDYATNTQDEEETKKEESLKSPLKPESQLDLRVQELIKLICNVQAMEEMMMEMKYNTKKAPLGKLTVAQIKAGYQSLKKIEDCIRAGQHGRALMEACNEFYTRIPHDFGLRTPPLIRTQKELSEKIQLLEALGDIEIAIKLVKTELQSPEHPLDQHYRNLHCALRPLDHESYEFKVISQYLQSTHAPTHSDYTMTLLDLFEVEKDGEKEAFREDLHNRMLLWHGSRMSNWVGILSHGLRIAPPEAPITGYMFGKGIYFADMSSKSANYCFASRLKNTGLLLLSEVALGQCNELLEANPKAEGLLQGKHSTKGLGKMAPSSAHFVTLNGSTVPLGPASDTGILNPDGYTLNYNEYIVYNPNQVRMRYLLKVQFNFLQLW", "assay": "PARP family selectivity", "type": "biochemical", "protocol": "(§1) The PARP activity assay was performed by ChemPartner (Shanghai, China). Each well was precoated with histone (final conc.: 100 ng mL^−1) diluted in PBS buffer (contains 10 mmol L^−1 NaH2PO4 and 150 mmol L^−1 NaCl, pH 7.4) by incubation at 4 °C overnight. […] The reaction was initiated by the addition of 10 µL of PARP (final conc.: 0.007 nM/well) at room temperature for 60 min. Add 20 µL of anti‐Poly/Mono‐ADP Ribose Rabbit mAb. Incubate for 1.5 h at room temperature and wash the plate three times using PBST buffer. […] Incubate for 1 h at room temperature and wash the plate three times using PBST buffer. Add 25 µL Femto‐ECL Substrate A and Femto‐ECL Substrate B (1:1) mix. Immediately read chemiluminescence on Envision (Revvity, USA)."}, "PARP7": {"biological_target": "PARP7 (Homo sapiens, UniProt Q7Z3E1)", "sequence (Q7Z3E1 whole entry, species assumed)": "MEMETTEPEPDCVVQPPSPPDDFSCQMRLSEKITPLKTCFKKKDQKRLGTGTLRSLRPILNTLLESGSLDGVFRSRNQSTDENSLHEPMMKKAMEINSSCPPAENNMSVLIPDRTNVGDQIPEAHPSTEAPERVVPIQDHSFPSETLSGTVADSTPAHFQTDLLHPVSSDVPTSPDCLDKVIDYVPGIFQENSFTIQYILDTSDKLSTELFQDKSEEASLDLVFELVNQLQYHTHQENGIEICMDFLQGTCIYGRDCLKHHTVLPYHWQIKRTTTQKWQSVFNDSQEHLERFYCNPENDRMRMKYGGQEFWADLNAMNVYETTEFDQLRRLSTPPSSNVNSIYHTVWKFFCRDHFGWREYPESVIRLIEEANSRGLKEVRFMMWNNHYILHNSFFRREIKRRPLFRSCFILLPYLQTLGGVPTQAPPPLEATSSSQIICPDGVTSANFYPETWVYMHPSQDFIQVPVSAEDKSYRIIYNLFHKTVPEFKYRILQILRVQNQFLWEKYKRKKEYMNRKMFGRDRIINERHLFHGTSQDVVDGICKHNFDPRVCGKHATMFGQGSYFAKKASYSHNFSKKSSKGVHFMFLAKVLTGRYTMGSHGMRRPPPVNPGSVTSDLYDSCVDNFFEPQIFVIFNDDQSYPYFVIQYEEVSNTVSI", "assay": "PARP family selectivity", "type": "biochemical", "protocol": "as §1"}, "MDA‐MB‐436": {"test_system": "MDA‐MB‐436", "assay": "Cell growth inhibition, CellTiter‐Glo (CTG)", "type": "cell-based", "conditions": "Homo sapiens, MDA-MB-436, 120 h; CTG, 5 days, n = 3"}, "MCF‐10A": {"test_system": "MCF‐10A", "assay": "Cell growth inhibition, normal breast cell line", "type": "cell-based", "protocol": "(§2) Growth viability was determined by the CellTiter‐Glo luminescent viability assay (Promega) 5 days after drug treatment. Cell viability was measured immediately after dosing (Day 0) and after 5 days of incubation using CellTiter‐Glo (CTG, Promega, G7573). Relative viability was calculated by normalizing the raw luminescence counts of the treated groups to those of the DMSO control groups. IC₅₀ values were calculated using sigmoidal dose‐response curve fitting with GraphPad Prism 9.0 software."}, "[1]": {"test_system": "MDA‐MB‐468 xenograft tumors", "assay": "Immunohistochemistry staining of xenograft tumors", "type": "in vivo, mice", "protocol": "The isolated tumor tissue was fixed in 4% paraformaldehyde for 24 h, dehydrated, embedded, and sliced. After deparaffinization, Ki67 (GB121141‐50, Servicebio), γH2AX (GB111841‐50, Servicebio), CD8 (GB15068‐50, Servicebio), or Cleaved‐caspase‐3 antibody (CST#9661) were incubated at 4 °C overnight, rinsed three times with PBS, and incubated with the secondary antibody. A DAB substrate solution was applied to the slide sections to reveal the antibody staining color. The tissue slide was dehydrated four times with alcohol. The tissue slides were then cleared three times in xylene and mounted with a mounting solution. The mounted slides could be stored at room temperature indefinitely. The immunohistochemical images were obtained under the microscope (Nikon DS‐Ri1)."}, "mTOR": {"biological_target": "mTOR (Homo sapiens, UniProt P42345)", "assay": "PIKK family kinase selectivity", "type": "biochemical", "conditions": "@2500 nM; read-out: mTOR inhibitory rate at certain concentration"}, "MDA‐MB‐468 cells": {"test_system": "MDA‐MB‐468 cells", "assay": "Colony formation assay", "type": "cell-based", "conditions": "1.0 µM, 10 days, vs AZD6738, Olaparib alone or combination", "protocol": "(§3) The colony formation assay was performed with cells seeded in 6‐well plates (10 000 cells/well). After 10 days, cells were fixed with methanol and stained with crystal violet. The number of colonies was counted. Data represent the means ± SD from 3 independent experiments performed in triplicate wells."}, "MDA‐MB‐231 cells": {"test_system": "MDA‐MB‐231 cells", "assay": "Colony formation assay", "type": "cell-based", "conditions": "1.0 µM, 10 days, vs AZD6738, Olaparib alone or combination", "protocol": "as §3"}, "DNA‐PK": {"biological_target": "DNA‐PK (Homo sapiens, UniProt P78527)", "assay": "PIKK family kinase selectivity", "type": "biochemical"}, "MDA‐MB‐468 xenograft": {"test_system": "MDA‐MB‐468 xenograft", "assay": "MDA‐MB‐468 xenografted mice model, antitumor efficacy", "type": "in vivo", "conditions": "28 days", "protocol": "Anticancer efficacy experiment in MDA‐MB‐468 Xenografted mice model was performed by Shanghai Medicilon Inc. All animal experiments in this study were conducted in strict accordance with national animal welfare regulations and were approved by the institutional animal ethics committee (Approval number: IACUC‐HZN2401P; Approval Date: 2024‐10‐18). MDA‐MB‐468 cells (1 × 10^7) were implanted in the right flanks subcutaneously in female nude mice. When the implanted tumor grew to a volume of 110 mm^3, the animals were randomly divided into four groups, each group containing four animals. Compound B8 was intraperitoneally (IP) administered at two different doses, bis in die (BID) for 28 days: low dose: 25 mg k^−1g and high dose 50 mg k^−1g. […] Tumor size and body weights were measured twice a week. On day 28, the mice were euthanized, tumors were harvested and weighed, and vital organs (heart, liver, spleen, lung, and kidney) were collected. Processed samples were saved for further safety evaluation."}, "ATR": {"biological_target": "T1, ATR (Homo sapiens, UniProt Q13535)", "T1 construct": "purchased Eurofins 14-953", "T1 sequence (Q13535 whole entry)": "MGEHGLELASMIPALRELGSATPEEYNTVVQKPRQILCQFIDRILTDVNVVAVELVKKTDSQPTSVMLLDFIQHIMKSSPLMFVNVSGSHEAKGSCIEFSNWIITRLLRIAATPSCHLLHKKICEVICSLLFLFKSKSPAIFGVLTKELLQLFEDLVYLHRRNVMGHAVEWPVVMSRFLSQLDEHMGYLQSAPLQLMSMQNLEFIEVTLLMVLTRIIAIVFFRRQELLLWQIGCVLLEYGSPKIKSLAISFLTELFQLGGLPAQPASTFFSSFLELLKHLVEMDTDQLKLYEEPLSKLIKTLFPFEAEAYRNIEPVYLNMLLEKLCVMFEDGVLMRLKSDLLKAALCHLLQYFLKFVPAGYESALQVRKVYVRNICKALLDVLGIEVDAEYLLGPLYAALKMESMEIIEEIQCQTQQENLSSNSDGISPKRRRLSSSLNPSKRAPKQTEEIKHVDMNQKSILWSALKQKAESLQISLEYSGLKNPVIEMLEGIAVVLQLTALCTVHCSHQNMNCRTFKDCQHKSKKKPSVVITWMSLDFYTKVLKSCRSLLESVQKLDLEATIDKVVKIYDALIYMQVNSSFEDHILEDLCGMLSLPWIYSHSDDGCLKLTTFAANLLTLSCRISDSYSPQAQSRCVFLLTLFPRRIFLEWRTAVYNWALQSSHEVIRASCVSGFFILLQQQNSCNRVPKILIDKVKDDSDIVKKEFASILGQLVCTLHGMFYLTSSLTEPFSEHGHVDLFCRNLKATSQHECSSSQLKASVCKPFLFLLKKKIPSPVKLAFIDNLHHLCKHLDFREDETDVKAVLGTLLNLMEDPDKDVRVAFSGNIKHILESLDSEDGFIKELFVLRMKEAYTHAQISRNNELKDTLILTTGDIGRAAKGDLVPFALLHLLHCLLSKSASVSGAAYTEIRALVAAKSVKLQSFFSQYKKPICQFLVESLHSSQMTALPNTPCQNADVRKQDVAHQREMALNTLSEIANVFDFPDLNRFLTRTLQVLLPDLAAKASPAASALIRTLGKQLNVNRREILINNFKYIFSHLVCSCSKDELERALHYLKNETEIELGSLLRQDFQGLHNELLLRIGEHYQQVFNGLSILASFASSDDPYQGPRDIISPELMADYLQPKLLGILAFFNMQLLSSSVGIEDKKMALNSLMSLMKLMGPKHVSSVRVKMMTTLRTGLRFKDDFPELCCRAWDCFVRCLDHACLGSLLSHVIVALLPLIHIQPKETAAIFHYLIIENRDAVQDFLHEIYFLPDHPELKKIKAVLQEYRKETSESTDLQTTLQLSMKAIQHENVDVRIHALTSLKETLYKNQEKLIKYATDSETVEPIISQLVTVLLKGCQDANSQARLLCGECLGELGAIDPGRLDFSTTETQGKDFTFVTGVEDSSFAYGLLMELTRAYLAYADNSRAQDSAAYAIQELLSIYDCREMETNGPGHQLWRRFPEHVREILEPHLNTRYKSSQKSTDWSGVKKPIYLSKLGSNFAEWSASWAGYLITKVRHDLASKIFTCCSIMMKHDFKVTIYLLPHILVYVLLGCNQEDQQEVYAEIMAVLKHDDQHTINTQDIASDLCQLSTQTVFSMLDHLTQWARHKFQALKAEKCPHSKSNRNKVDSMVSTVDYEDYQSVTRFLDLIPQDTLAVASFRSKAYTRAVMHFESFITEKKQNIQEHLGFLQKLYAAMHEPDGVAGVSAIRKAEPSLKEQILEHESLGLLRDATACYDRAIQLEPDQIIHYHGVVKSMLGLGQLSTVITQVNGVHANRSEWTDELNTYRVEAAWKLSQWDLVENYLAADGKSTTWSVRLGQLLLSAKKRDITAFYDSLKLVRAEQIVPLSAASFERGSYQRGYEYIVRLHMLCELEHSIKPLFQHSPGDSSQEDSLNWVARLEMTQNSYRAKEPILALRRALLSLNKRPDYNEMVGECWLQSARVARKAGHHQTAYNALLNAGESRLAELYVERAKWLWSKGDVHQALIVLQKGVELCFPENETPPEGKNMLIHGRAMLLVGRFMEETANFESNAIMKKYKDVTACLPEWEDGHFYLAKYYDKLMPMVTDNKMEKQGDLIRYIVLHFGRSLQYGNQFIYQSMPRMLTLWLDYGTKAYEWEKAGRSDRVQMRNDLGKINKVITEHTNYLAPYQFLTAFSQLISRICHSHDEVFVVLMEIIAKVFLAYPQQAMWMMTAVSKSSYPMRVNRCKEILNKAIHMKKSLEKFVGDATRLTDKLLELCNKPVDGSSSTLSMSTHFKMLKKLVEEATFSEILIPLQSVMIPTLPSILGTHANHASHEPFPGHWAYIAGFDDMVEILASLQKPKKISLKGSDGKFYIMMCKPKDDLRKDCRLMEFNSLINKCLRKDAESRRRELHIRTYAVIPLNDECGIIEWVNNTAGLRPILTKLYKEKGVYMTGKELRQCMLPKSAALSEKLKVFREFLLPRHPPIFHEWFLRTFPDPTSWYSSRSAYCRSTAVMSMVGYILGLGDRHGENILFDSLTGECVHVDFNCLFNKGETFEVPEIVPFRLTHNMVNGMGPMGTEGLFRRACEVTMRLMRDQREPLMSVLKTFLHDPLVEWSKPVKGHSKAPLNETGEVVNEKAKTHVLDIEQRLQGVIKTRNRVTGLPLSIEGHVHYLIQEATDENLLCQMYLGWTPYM", "T1 sequence (Q8WXE1 whole entry partner)": "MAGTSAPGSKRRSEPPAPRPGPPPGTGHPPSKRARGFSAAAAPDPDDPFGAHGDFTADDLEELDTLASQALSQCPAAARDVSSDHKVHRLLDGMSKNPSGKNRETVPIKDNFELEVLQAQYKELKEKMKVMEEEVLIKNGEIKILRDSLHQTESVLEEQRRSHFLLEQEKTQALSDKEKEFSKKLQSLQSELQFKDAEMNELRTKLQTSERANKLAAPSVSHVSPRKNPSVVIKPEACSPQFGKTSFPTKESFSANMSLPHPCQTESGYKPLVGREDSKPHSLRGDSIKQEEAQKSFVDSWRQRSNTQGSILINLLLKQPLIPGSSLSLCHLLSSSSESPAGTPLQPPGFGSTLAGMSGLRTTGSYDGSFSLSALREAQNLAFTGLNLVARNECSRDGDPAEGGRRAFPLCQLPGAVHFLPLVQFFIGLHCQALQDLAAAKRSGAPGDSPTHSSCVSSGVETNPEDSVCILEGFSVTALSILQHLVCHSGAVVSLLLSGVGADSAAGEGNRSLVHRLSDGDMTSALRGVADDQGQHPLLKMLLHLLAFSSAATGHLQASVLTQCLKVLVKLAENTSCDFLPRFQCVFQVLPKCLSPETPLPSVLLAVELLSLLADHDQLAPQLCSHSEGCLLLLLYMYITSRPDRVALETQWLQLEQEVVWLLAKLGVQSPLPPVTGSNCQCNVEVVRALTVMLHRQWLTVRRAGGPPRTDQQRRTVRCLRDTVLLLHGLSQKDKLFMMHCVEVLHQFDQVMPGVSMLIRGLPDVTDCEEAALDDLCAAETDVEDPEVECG", "assay": "ATR kinase inhibition, Mobility Shift Assay", "type": "biochemical", "conditions": "n = 3, mean ± SD", "protocol": "The in vitro ATR kinase inhibitory activities were determined by ChemPartner Co., Ltd. (Shanghai, China) using the Mobility Shift Assay. The tested compound was dissolved with DMSO and diluted to 1000/3 × of the final desired highest inhibitor concentration in the reaction. […] The assay wells were incubated at 28 °C for 4 h."}, "MDA‐MB‐468": {"test_system": "MDA‐MB‐468", "assay": "Cell growth inhibition, CellTiter‐Glo (CTG)", "type": "cell-based", "protocol": "(§4) All cells were grown in a humidified incubator at 37 °C and 5% CO2.\n(§5) […] […] Relative viability was calculated by normalizing the raw luminescence counts of the treated groups to those of the DMSO control groups. IC₅₀ values were calculated using sigmoidal dose‐response curve fitting with GraphPad Prism 9.0 software."}, "MDA‐MB‐231": {"test_system": "MDA‐MB‐231", "assay": "Cell growth inhibition, CellTiter‐Glo (CTG)", "type": "cell-based", "protocol": "as §4, §5"}, "[2]": {"test_system": "TNBC cells (MDA‐MB‐231, MDA‐MB‐468, MDA‐MB‐436)", "assay": "Anti‐proliferative activity across three TNBC cell lines (summary)", "type": "cell-based", "conditions": "read-out: IC50 range across three TNBC cell lines", "protocol": "as §2, with “Cells were grown at 37 °C, under 95% air and 5% CO₂ until they reached about 70% confluence and were subcultured at least twice before the experiment. Cells were seeded at a density of 1000 cells/well in two 384‐well white plates, and the plates were placed in a 5% CO₂ incubator overnight. Growth” for “Growth”"}, "[3]": {"conditions": "24, 48, 72 h treatment, Figure S2"}}, "data": [{"smiles": "C[C@@H]1COCCN1c1cc(CNC(=O)c2ccc(C(=O)N3CCN(C(=O)c4cc(Cc5n[nH]c(=O)c6ccccc56)ccc4F)CC3)cc2)nc(-c2ccnc3[nH]ccc23)n1", "note": "[Compound B8, (R)‐4‐(4‐(2‐fluoro‐5‐((4‐oxo‐3,4‐dihydrophthalazin‐1‐yl)methyl)benzoyl)piperazine‐1‐carbonyl)‐N‐((6‐(3‐methylmorpholino)‐2‐(1H‐pyrrolo[2,3‐b]pyridin‐4‐yl)pyrimidin‐4‐yl)methyl) benzamide]", "values": [{"measurement": "IC50", "setting": "PARP2", "result": 0.0051, "unit": "µM"}, {"measurement": "PARP2 (selectivity over PARP1, fold)", "setting": "PARP2; fold of PARP1 selectivity over PARP2", "result": 13.4, "unit": "fold"}, {"measurement": "IC50", "setting": "PARP7", "result": "0.0285 ± 0.0013", "unit": "µM"}, {"measurement": "PARP7 (selectivity over PARP1, fold)", "setting": "PARP7; fold of PARP1 selectivity over PARP7", "result": 75, "unit": "fold"}, {"measurement": "IC50", "setting": "MDA‐MB‐436", "result": "0.009 ± 0.002", "unit": "µM"}, {"measurement": "inhibition at 30 µM", "setting": "MCF‐10A; Homo sapiens, MCF-10A, @30 µM, read-out: MCF‐10A inhibitory rate at certain concentration", "result": 17, "unit": "%"}, {"measurement": "inhibitory activity against normal cells", "setting": "MCF‐10A; MCF‐10A", "result": "minimal inhibitory activity against normal cells"}, {"measurement": "CD8 expression in tumor tissues (IHC)", "setting": "[1]", "result": "increased the levels of CD8 expression"}, {"measurement": "Ki67, γH2AX and cleaved‐caspase 3 expression in tumors (IHC)", "setting": "[1]", "result": "decreased Ki67 expression and increased γH2AX and cleaved‐caspase 3 expression"}, {"measurement": "inhibition at […]", "setting": "mTOR", "result": 10.3, "unit": "%"}, {"measurement": "colony formation rate", "setting": "MDA‐MB‐468 cells", "result": "significantly greater inhibitory effect on the colony formation rate"}, {"measurement": "colony formation rate", "setting": "MDA‐MB‐231 cells", "result": "significantly greater inhibitory effect on the colony formation rate"}, {"measurement": "IC50", "setting": "DNA‐PK", "result": "> 5", "unit": "µM"}, {"measurement": "tumor growth inhibition rate (TGI)", "setting": "MDA‐MB‐468 xenograft; B8 50 mg/kg I.P., female nude mice", "result": 68.36, "unit": "%"}, {"measurement": "tumor weight and volume", "setting": "MDA‐MB‐468 xenograft; B8‐treated mice", "result": "significantly lower than control groups"}, {"measurement": "IC50", "setting": "ATR", "result": "0.0173 ± 0.0025", "unit": "µM"}, {"measurement": "anti‐proliferation effect at different time points", "setting": "MDA‐MB‐468; [3]", "result": "exerted anti‐proliferation activity"}, {"measurement": "IC50", "setting": "MDA‐MB‐468; Homo sapiens, MDA-MB-468, 120 h, CTG, 5 days, n = 3", "result": "0.32 ± 0.01", "unit": "µM"}, {"measurement": "anti‐proliferation effect at different time points", "setting": "MDA‐MB‐231; [3]", "result": "exerted anti‐proliferation activity"}, {"measurement": "IC50", "setting": "MDA‐MB‐231; Homo sapiens, MDA-MB-231, 120 h, read-out: IC50 MDA‐MB‐231, CTG, 5 days, n = 3", "result": "1.89 ± 0.13", "unit": "µM"}, {"measurement": "IC50", "setting": "[2]", "result": "0.009 to 1.89", "unit": "µM"}]}]}
